The target in data set [1] is T1, Lanosterol synthase (Rattus norvegicus) (UniProt P48450).
T1 sequence (whole entry): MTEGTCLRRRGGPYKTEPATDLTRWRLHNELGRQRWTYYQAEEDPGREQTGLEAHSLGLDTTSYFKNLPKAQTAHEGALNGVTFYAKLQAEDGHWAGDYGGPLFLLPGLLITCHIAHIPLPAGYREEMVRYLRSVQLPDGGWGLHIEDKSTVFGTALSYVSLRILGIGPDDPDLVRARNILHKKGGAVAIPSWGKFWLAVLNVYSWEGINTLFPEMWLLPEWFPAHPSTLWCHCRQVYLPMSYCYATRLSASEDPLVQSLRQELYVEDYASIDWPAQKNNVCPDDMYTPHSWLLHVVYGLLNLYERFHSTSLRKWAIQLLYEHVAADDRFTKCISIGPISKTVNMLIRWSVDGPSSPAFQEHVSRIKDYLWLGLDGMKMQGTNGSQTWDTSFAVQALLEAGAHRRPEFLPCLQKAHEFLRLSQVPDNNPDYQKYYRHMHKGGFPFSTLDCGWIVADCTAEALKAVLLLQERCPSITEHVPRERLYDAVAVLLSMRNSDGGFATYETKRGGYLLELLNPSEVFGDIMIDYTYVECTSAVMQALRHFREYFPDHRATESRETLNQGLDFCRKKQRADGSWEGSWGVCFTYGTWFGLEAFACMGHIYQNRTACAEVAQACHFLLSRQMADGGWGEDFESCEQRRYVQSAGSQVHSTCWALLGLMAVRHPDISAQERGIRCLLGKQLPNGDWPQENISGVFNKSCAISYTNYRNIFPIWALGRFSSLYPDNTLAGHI
The data set can be described thus: Percent inhibition of rat microsomal oxidosqualene cyclase-lanosterol synthase (OSC) at 100 nM.

The species entered for data set [2] is Rattus norvegicus. Put plainly: Effective dose for the 80% inhibition of rat cholesterol biosynthesis. Format: functional.
For data set [3], the species on record is Rattus norvegicus. The data set can be described thus: Effective dose for the 50% inhibition of rat cholesterol biosynthesis. It is filed as functional.
Data set [4] concerns Rattus norvegicus. The data set can be described thus: Percent feeding effect was determined after oral administration of 100 mg/kg in rat. It is filed as functional.
The subject of data set [5] is Rattus norvegicus. The data set can be described thus: Percent reduction in food intake was determined after oral administration of 100 mg/kg in rat after 24 hours.
The nature of data set [6]: pKa was determined. It is filed as physicochemical.
Data set [7] in a line: Concentration for the inhibition of rat microsomal oxidosqualene cyclase-lanosterol synthase (OSC).
Data set [8] relates to Rattus norvegicus. Put plainly: Percent reduction in food intake was determined after oral administration of 50 mg/kg in rat after 24 hours. Format: functional.

Molecules are shown by their SMILES. Bounds are passed on as bounds.

`O=C(N1CCN(c2ccncc2Cl)CC1)N1CCN(S(=O)(=O)c2ccc(F)cc2)CC1` yielded an inhibition in data set [1] of 100%. In addition, in the data set filed under Rattus norvegicus [2], the ED80 stood at 2.3 mg/kg. This molecule also registered an ED50 in the data set filed under Rattus norvegicus [3] of 1.1 mg/kg.
With `O=C(N1CCC(c2ccncc2)CC1)N1CCN(S(=O)(=O)c2ccc(Br)cc2)CC1`, the inhibition in data set [1] amounted to 94%. The Effect in the data set with Rattus norvegicus [4] was 23%. Also, the ED80 in the data set listed under Rattus norvegicus [2] came out at 1.8 mg/kg. For the same molecule, in the data set listed under Rattus norvegicus [3], the ED50 amounted to 0.4 mg/kg.
As to `O=C(c1ccc(C(F)(F)F)cc1)N1CCC(=Cc2ccc(C3=NCCO3)cc2)CC1`, the Reduction in the data set on Rattus norvegicus [5] is 15%.
The molecule `O=C(C1CCN(c2ccncc2Br)CC1)N1CCN(S(=O)(=O)c2ccc(Br)cc2)CC1` had an inhibition in data set [1] of 89%. In the data set filed under Rattus norvegicus [3], this molecule had a 50% effective dose (ED50) of 0.5 mg/kg.
Turning to `O=C(N1CCN(c2ccncc2Cl)CC1)N1CCN(S(=O)(=O)c2ccc(Cl)cc2)CC1`, in data set [1], the inhibition was 87%. In addition, the pKa in data set [6] is 5.8. This molecule also came in with an Effect with Rattus norvegicus [4] of 14%. Further, in the data set listed under Rattus norvegicus [2], the ED80 was 1.4 mg/kg. In the data set filed under Rattus norvegicus [3], this molecule displayed an ED50 of 0.6 mg/kg.
In data set [1], `O=C(C1CCN(c2ncncc2Br)CC1)N1CCN(S(=O)(=O)c2ccc(Br)cc2)CC1` displayed an inhibition of 47%. In addition, the ED50 in the data set filed under Rattus norvegicus [3] is over 2 mg/kg.
In the case of `O=C(c1ccc(Cl)cc1)c1ccc(OC2CN3CCC2CC3)cc1` (stereo not given), inhibition in data set [7] was half-maximal at 58 nM (IC50).
With `O=C(C1CCN(c2ccncc2F)CC1)N1CCN(S(=O)(=O)c2ccc(C(F)(F)F)cc2)CC1`, the inhibition in data set [1] came to 100%. This molecule displayed a pKa in data set [6] of 6.7. The molecule also showed an ED80 in the data set listed under Rattus norvegicus [2] of 1 mg/kg. Besides, in the data set listed under Rattus norvegicus [3], it took a dose of 0.4 mg/kg to reach the 50% effect level (ED50).
With `O=C(C1CCN(c2ccncc2)CC1)N1CCN(S(=O)(=O)c2ccc(Br)cc2)CC1`, in the data set on Rattus norvegicus [8], the Reduction was determined as 64%.
For `O=C(C1CCN(S(=O)(=O)c2ccc(Br)cc2)CC1)N1CCC(c2ccncc2)CC1`, the inhibition in data set [1] was 100%. For the same molecule, in the data set filed under Rattus norvegicus [2], the ED80 amounted to 4.7 mg/kg. Further, the ED50 in the data set listed under Rattus norvegicus [3] amounted to 0.5 mg/kg.
Turning to `O=C(N1CCC(c2ccncc2)CC1)N1CCN(S(=O)(=O)c2ccc(F)cc2)CC1`, in data set [1], the inhibition was 97%. Moreover, the ED50 in the data set listed under Rattus norvegicus [3] was 0.5 mg/kg.
`O=C(C1CCN(c2ccncn2)CC1)N1CCN(S(=O)(=O)c2ccc(Br)cc2)CC1` gave a Reduction with Rattus norvegicus [5] of 17%. This molecule yielded an ED50 in the data set filed under Rattus norvegicus [3] of 0.4 mg/kg.
In turn, `O=C(N1CCC(c2ccncc2)CC1)N1CCN(S(=O)(=O)c2ccc(Cl)cc2)CC1` displayed an inhibition in data set [1] of 91%. In addition, the pKa in data set [6] was found to be 5.8. For the same molecule, in the data set filed under Rattus norvegicus [2], the ED80 came out at 3.6 mg/kg. Besides, in the data set listed under Rattus norvegicus [3], the 50% effect level (ED50) was put at a dose of 1.7 mg/kg.
`O=C(N1CCN(c2ccncc2Cl)CC1)N1CCN(S(=O)(=O)c2ccc(C(F)(F)F)cc2)CC1` came in with an inhibition in data set [1] of 100%. In the data set filed under Rattus norvegicus [2], the ED80 was determined as 0.7 mg/kg. The molecule also gave an ED50 in the data set filed under Rattus norvegicus [3] of 0.2 mg/kg.
The corresponding values for `O=C(N1CCN(c2ccncc2Cl)CC1)N1CCN(S(=O)(=O)c2ccc(Br)cc2)CC1` are 100%, 2.3 mg/kg and 1.1 mg/kg.
